From the NIST ThermoML archive (doi:10.1016/j.fluid.2015.09.030)
± gives the expanded uncertainty stated by the source.

Details: Liquid, Ebulliometric method (Recirculating still)

SMILES: Cc1cc(C)cc(C)c1 [1,3,5-trimethylbenzene]
- vapor or sublimation pressure (437.83 K): 101.33 ± 0.46 kPa

SMILES: Cc1ccc(C)s1 [2,5-dimethylthiophene]
- vapor or sublimation pressure (409.96 K): 101.33 ± 0.46 kPa

SMILES: CCc1cccs1 [2-ethylthiophene]
- vapor or sublimation pressure (407.14 K): 101.33 ± 0.46 kPa

SMILES: c1ccccc1 [benzene]
- vapor or sublimation pressure (353.15 K): 101.33 ± 0.46 kPa

SMILES: CCCCCCCCCC [decane]
- vapor or sublimation pressure (447.46 K): 101.33 ± 0.46 kPa

SMILES: CCO [ethanol]
- vapor or sublimation pressure (351.45 K): 101.33 ± 0.46 kPa
